For one experiment, the target named is T1, KIF3CC (Mus musculus, UniProt O35066).
T1 construct: gene Kif3c; KIF3C Met1-Leu396, C-terminal EB1 dimerization motif, TEV site and His8 tag kept; E. coli; engineered homodimer
T1 sequence (O35066 1-396): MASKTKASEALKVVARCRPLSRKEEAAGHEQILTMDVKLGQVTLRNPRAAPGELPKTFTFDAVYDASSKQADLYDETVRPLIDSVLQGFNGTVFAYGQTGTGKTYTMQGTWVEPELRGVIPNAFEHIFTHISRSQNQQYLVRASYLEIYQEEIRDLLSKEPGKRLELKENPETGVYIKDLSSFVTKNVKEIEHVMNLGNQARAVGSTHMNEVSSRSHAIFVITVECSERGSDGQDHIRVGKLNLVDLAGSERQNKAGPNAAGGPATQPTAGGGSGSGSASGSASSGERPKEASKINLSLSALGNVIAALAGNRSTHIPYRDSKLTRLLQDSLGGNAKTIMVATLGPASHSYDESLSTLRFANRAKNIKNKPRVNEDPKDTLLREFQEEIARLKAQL
Nature of the experiment: Qdot single-molecule TIRF motility. Type of experiment: biochemical. Conditions: 10 μM AziPm; 1 mM MgATP, X-rhodamine microtubules, paclitaxel, 5% DMSO, pH 6.9, 25 °C.

A further experiment deals with T2, KIF3BB (Mus musculus, UniProt Q61771).
T2 construct: gene Kif3b; KIF3B Met1-Leu369, C-terminal EB1 dimerization motif, TEV site and His8 tag kept; E. coli; engineered homodimer, Mr 48,011 per chain
T2 sequence (Q61771 1-369): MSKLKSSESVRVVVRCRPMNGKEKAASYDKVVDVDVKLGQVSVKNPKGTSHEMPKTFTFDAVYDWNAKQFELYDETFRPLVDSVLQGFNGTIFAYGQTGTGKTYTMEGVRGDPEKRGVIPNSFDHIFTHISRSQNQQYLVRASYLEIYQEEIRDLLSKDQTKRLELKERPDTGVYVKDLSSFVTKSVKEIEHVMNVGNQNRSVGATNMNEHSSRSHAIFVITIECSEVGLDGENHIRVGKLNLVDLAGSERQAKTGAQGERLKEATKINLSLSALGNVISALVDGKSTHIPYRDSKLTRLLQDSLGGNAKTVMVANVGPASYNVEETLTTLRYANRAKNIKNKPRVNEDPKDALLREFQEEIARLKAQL
Nature of the experiment: Qdot single-molecule TIRF motility. Type of experiment: biochemical. Conditions: 10 μM AziPm; 1 mM MgATP, X-rhodamine microtubules, paclitaxel, 5% DMSO, pH 6.9, 25 °C.

On to `CC(C)c1ccc(C2(C(F)(F)F)N=N2)cc1O` [AziPm, meta-azipropofol], for which the “% decrease in run length at 10 μM” value at KIF3CC is ~ 35%; on KIF3BB, ~ 50%.

Values taken from publication PMC6065180, “An allosteric propofol-binding site in kinesin disrupts kinesin-mediated processive movement on microtubules” (The Journal of Biological Chemistry, 2018).
